The text below walks through data of patent publication US8569267B2, “Tetracyclic tetrahydrofuran derivatives containing cyclic amine side chain” (Janssen Pharmaceutica, NV, priority 2005, dated 2013).

For test [1], the target named is T1, human Dopamine D2L receptor (Homo sapiens, UniProt P14416).
T1 construct: expressed in transfected cells; host or cells: CHO cells
Nature of the test: In vitro binding affinity for human D2L receptor ([3H]Spiperone binding). To be noted: human D2L receptor-transfected CHO cell membranes; for IC50: read-out: D2L pIC50 (converted). The procedure, abridged: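 Competition curves were expressed as percent specific binding, measured by scintillation counting after filtration onto GF/B filters and ice-cold Tris washes. Test compounds competed with [3H]Spiperone, added from a 2 nmol/L dilution, for 30 min at 37° C on transfected CHO membranes in pH 7.7 Tris-HCl salt buffer. Butaclamol at 10^−6 mol/l final marked non-specific binding.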

Test [2] has as its target T2, human cloned 5-HT2A receptor, expressed in L929 cells (Homo sapiens, UniProt P28223).
T2 construct: expressed in transfected cells; host or cells: L929 cells
In words: In vitro binding affinity for 5-HT2A receptor ([125I]R91150 radioligand binding). The settings on record: human cloned 5-HT2A receptor in L929 cells, [125I]R91150; for IC50: read-out: 5-HT2A pIC50 (converted). The procedure, abridged: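 Competition radioligand binding to human cloned 5-HT2A receptor expressed in L929 cells, using [125I]R91150 with test compound at various concentrations. At equilibrium, receptor-bound radioactivity was separated from free and counted. Affinity reflects inhibition of radioligand binding.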

Test [3] has as its target T3, NET (norepinephrine transporter) (Rattus norvegicus, UniProt Q63380).
T3 construct: Cortex from rat brain was collected and homogenised; from tissue; host or cells: rat brain cortex
Nature of the test: In vitro determination of NET reuptake inhibition ([3H]Nixosetine binding, rat brain cortex). The settings on record: rat brain cortex; for IC50: read-out: NET pIC50 (converted). The procedure, abridged: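 Competition curves and percentage specific binding came from scintillation counting of filter-trapped radioactivity. The membranes were rat cortical homogenate in pH 7.4 Tris buffer with 120 mM NaCl and 5 mM KCl. Test compounds competed with [3H]nisoxetine for binding.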

The target of test [4] is T4, human cloned 5-HT2C receptor, expressed in CHO cells (Homo sapiens, UniProt P28335).
T4 construct: expressed in transfected cells; host or cells: CHO cells
T4 sequence (P28335 33-458): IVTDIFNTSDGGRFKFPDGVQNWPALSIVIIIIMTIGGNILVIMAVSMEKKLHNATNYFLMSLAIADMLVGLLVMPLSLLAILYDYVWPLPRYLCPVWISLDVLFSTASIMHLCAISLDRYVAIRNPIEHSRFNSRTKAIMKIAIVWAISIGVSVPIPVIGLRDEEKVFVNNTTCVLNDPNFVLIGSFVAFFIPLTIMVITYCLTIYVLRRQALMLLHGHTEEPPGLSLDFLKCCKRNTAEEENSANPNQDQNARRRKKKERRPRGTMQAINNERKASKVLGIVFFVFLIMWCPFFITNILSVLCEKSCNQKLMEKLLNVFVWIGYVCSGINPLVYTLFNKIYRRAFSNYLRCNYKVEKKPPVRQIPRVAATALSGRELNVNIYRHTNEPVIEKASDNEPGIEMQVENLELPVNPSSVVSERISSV
In words: In vitro binding affinity for 5-HT2C receptor ([3H]mesulergine radioligand binding). To be noted: human cloned 5-HT2C receptor; for IC50: read-out: 5-HT2C pIC50 (converted). The procedure, abridged: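 Receptor-bound radioligand counted after separation from unbound label once equilibrium is reached. Test compound added across a concentration range to tissue preparation plus radioligand; inhibition of binding reflects affinity and concentration.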

A value given as a limit tells only on which side of the number the result lay.

T1 sequence (P14416 whole entry): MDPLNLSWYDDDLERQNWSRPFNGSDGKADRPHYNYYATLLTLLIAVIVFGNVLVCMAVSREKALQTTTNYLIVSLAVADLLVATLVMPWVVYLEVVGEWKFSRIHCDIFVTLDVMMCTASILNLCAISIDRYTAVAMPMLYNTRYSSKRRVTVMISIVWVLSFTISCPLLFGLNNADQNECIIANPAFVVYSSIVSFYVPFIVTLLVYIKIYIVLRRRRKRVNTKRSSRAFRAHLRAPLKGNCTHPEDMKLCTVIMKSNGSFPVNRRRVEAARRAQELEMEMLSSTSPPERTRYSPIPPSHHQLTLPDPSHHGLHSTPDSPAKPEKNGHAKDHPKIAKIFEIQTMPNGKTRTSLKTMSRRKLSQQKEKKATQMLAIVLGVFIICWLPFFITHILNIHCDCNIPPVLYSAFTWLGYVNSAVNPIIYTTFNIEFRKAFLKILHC
T2 sequence (P28223 whole entry): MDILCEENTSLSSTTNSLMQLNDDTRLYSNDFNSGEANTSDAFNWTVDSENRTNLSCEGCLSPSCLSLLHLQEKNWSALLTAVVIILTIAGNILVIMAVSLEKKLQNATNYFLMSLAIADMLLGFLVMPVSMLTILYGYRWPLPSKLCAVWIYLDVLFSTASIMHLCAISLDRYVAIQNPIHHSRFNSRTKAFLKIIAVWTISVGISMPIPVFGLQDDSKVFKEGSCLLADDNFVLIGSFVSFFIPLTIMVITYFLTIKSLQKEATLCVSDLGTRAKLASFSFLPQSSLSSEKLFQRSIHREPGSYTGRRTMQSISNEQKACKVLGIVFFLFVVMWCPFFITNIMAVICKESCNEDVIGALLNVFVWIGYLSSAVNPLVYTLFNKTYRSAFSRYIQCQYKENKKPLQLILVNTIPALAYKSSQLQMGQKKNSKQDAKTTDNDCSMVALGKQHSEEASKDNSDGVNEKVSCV
T3 sequence (Q63380 1-617): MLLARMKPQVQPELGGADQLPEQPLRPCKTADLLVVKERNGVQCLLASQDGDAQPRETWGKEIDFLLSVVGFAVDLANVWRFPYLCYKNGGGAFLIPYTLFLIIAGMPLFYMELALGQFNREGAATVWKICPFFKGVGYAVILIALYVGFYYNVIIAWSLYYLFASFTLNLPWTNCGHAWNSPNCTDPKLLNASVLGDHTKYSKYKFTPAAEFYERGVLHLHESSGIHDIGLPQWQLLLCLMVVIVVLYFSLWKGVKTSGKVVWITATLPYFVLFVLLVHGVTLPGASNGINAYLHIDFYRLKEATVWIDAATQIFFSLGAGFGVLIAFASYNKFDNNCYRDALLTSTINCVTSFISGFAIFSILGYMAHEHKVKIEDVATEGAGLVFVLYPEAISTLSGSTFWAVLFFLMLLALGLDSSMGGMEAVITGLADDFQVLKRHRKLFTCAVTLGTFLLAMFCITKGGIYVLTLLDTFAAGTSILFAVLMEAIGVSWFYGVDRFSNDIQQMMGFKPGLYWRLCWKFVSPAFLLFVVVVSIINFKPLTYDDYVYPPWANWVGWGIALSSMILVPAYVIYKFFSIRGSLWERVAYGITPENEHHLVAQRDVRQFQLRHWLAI

As to `Fc1ccc2c(c1)C1OC(CN3CCN(Cc4cccs4)CC3)CC1c1ccccc1C2` (centres unmarked) [Compound 58], the IC50 is 0.00741 µM in test [1], 0.011 µM in test [2], 0.977 µM in test [3] and 0.0257 µM in test [4].

Consider `Fc1ccc2c(c1)C1OC(CN3CCN(Cc4ccsc4)CC3)CC1c1ccccc1C2` (centres unmarked) [Compound 59], for which the IC50 in test [1] is 0.00692 µM; in test [2], 0.0148 µM; in test [3], 1.26 µM; in test [4] it was 0.049 µM.

`Fc1ccc2c(c1)C1OC(CN3CCN(Cc4ccco4)CC3)CC1c1ccccc1C2` (centres unmarked) [Compound 60]: the IC50 was 0.00631 µM in test [1], 0.00776 µM in test [2], 1.55 µM in test [3] and 0.0251 µM in test [4].

Regarding `Fc1ccc2c(c1)C1OC(CN3CCN(Cc4ccoc4)CC3)CC1c1ccccc1C2.O=C(O)C(F)(F)F` (stereo not drawn) [Compound 61, [2R-(2α, 3aα, 12bβ)]1-(11-fluoro-3,3a,8,12b-tetrahydro-2H-1-oxa-dibenzo[e,h]-azulen-2-ylmethyl)-4-furan-3-ylmethyl-piperazine.trifluoroacetate (1:1)], the “D2L pIC50” value in test [1] came out at 8.09. In addition, in test [2], the “5-HT2A pIC50” value is 8.03. Moreover, the “NET pIC50” value in test [3] is given as 5.88. Further, the “5-HT2C pIC50” value in test [4] is 7.66.

Take `Fc1ccc2c(c1)C1OC(CN3CCN(Cc4ccc(-c5ccc(Cl)cc5)o4)CC3)CC1c1ccccc1C2` (centres unmarked) [Compound 62]: the IC50 was 0.0759 µM in test [1], 0.0479 µM in test [2], 3.47 µM in test [3] and 0.107 µM in test [4].

As for `O=[N+]([O-])c1ccc(-c2ccc(CN3CCN(CC4CC5c6ccccc6Cc6ccc(F)cc6C5O4)CC3)o2)cc1` (centres unmarked) [Compound 63], the IC50 in test [1] was 0.0741 µM; in test [2], 0.0275 µM; in test [3] it was 0.562 µM; in test [4], 0.0501 µM.

`Fc1ccc2c(c1)C1OC(CN3CCN(Cc4cc5ccccc5o4)CC3)CC1c1ccccc1C2` (centres unmarked) [Compound 64]: the IC50 was 0.0155 µM in test [1], 0.0263 µM in test [2], 2.69 µM in test [3] and 0.0288 µM in test [4].

As to `Fc1ccc2c(c1)C1OC(CN3CCN(Cc4cnc[nH]4)CC3)CC1c1ccccc1C2` (centres unmarked) [Compound 66], the IC50 in test [1] was 0.0138 µM; in test [2], 0.00741 µM; in test [3], 4.37 µM; in test [4], 0.0372 µM.

Consider `Fc1ccc2c(c1)C1OC(CN3CCN(Cc4cnc(-c5ccccc5)[nH]4)CC3)CC1c1ccccc1C2` (centres unmarked) [Compound 67], for which the IC50 in test [1] was 0.00851 µM; in test [2], 0.00316 µM; in test [3] it was 4.9 µM; in test [4] it was 0.00427 µM.

On to `O=S(=O)(c1ccccc1)n1cccc1CN1CCN(CC2CC3c4ccccc4Cc4ccc(F)cc4C3O2)CC1` (centres unmarked) [Compound 68], for which the IC50 in test [1] is 0.0912 µM; in test [2], 0.0676 µM; in test [3], 2.4 µM; in test [4], 0.117 µM.

With `Fc1ccc2c(c1)[C@@H]1O[C@@H](CN3CCN(CC4CCCCC4)CC3)C[C@@H]1c1ccccc1C2` [Compound 69], the IC50 in test [1] is 0.00724 µM; in test [2], 0.0417 µM; in test [3], > 10 µM; in test [4] it was 0.0794 µM.

Consider `N#Cc1cccc(CN2CCN(CC3CC4c5ccccc5Cc5ccc(F)cc5C4O3)CC2)c1` (centres unmarked) [Compound 70], for which the IC50 is 0.0204 µM in test [1], 0.00724 µM in test [2], 0.708 µM in test [3] and 0.0158 µM in test [4].

Take `COC(=O)c1ccc(CN2CCN(CC3CC4c5ccccc5Cc5ccc(F)cc5C4O3)CC2)cc1` (centres unmarked) [Compound 72]: the IC50 was 0.0269 µM in test [1], 0.0309 µM in test [2], 1.17 µM in test [3] and 0.0603 µM in test [4].

As to `O=[N+]([O-])c1ccc(CN2CCN(CC3CC4c5ccccc5Cc5ccc(F)cc5C4O3)CC2)cc1` (centres unmarked) [Compound 73], the IC50 was 0.0186 µM in test [1], 0.0204 µM in test [2], 3.63 µM in test [3] and 0.0468 µM in test [4].

On to `Fc1ccc2c(c1)C1OC(CN3CCN(Cc4ccc5ccccc5c4)CC3)CC1c1ccccc1C2` (centres unmarked) [Compound 74], for which the IC50 in test [1] is 0.0309 µM; in test [2], 0.126 µM; in test [3] it was 3.16 µM; in test [4], 0.162 µM.

With `Fc1ccc2c(c1)C1OC(CN3CCN(Cc4cccc5ccccc45)CC3)CC1c1ccccc1C2` (centres unmarked) [Compound 75], the IC50 in test [1] was 0.0631 µM; in test [2], 0.0174 µM; in test [3], 1.62 µM; in test [4], 0.0977 µM.

Consider `Fc1ccc2c(c1)C1OC(CN3CCN(Cc4cccc(Oc5ccccc5)c4)CC3)CC1c1ccccc1C2` (centres unmarked) [Compound 76], for which the IC50 in test [1] was 0.0676 µM; in test [2], 0.0661 µM; in test [3], 0.851 µM; in test [4], 0.102 µM.

As to `COCC(=O)N1CCN(CC2CC3c4ccccc4Cc4ccc(F)cc4C3O2)CC1` (centres unmarked) [Compound 77], the IC50 in test [1] is 0.0339 µM; in test [2], 0.00309 µM; in test [3], 3.63 µM; in test [4], 0.0132 µM.

`O=C(C1CC1)N1CCN(C[C@H]2C[C@@H]3c4ccccc4Cc4ccc(F)cc4[C@@H]3O2)CC1` [Compound 78, [2R-(2α, 3aα, 12bβ)]cyclopropyl-[4-(11-fluoro-3,3a, 8,12b-tetrahydro-2H-1-oxa-dibenzo[e,h]azulen-2-ylmethyl)-piperazin-1-yl]-methanone.oxalate (1:1)]: the IC50 in test [1] was 0.0363 µM; in test [2] it was 0.00224 µM; in test [3], > 10 µM; in test [4] it was 0.00891 µM.

Turning to `O=C(C1CCCC1)N1CCN(CC2CC3c4ccccc4Cc4ccc(F)cc4C3O2)CC1` (centres unmarked) [Compound 79], the IC50 in test [1] was 0.0447 µM; in test [2] it was 0.00479 µM; in test [3], > 10 µM; in test [4], 0.0513 µM.

As to `O=C(c1cccs1)N1CCN(CC2CC3c4ccccc4Cc4ccc(F)cc4C3O2)CC1` (centres unmarked) [Compound 81], the IC50 in test [1] is 0.0355 µM; in test [2], 0.000724 µM; in test [3], > 10 µM; in test [4], 0.00501 µM.

Regarding `O=C(c1ccccc1)N1CCN(CC2CC3c4ccccc4Cc4ccc(F)cc4C3O2)CC1` (stereo not drawn) [Compound 82, [2R-(2α, 3aα, 12bβ)][4-(11-fluoro-3,3a,8,12b-tetrahydro-2H-1-oxa-dibenzo[e,h]-azulen-2-ylmethyl)-piperazin-1-yl]-phenyl-methanone.oxalate (1:1)], the IC50 in test [1] is 0.0195 µM; in test [2], 0.00214 µM; in test [3], > 10 µM; in test [4], 0.00324 µM.

Take `C=CCOC(=O)N1CCN(CC2CC3c4ccccc4Cc4ccc(F)cc4C3O2)CC1` (centres unmarked) [Compound 84]: the IC50 in test [1] is 0.0257 µM; in test [2], 0.00813 µM; in test [3] it was > 10 µM; in test [4], 0.0251 µM.

In the case of `CCNC(=O)N1CCN(C[C@H]2C[C@@H]3c4ccccc4Cc4ccc(F)cc4[C@@H]3O2)CC1` [Compound 86], the IC50 in test [1] is 0.055 µM; in test [2], 0.000832 µM; in test [3] it was 7.08 µM; in test [4], 0.00302 µM.

Take `CSCCNC(=O)N1CCN(CC2CC3c4ccccc4Cc4ccc(F)cc4C3O2)CC1` (centres unmarked) [Compound 87]: the IC50 in test [1] was 0.0257 µM; in test [2], 0.00126 µM; in test [3], 5.89 µM; in test [4] it was 0.00309 µM.

For `CC(C)NC(=O)N1CCN(CC2CC3c4ccccc4Cc4ccc(F)cc4C3O2)CC1` (centres unmarked) [Compound 88], the IC50 in test [1] is 0.0229 µM; in test [2] it was 0.00038 µM; in test [3], 6.46 µM; in test [4] it was 0.0055 µM.
